SMILES strings stand for the structures.

The test system of the experiment is A.niger and P.funiculosum. Nature of the experiment: minimum inhibitory concentration (MIC) test, agar plates, fungal growth. The format is cell-based. As to conditions: agar inoculated with 10,000 units each of A.niger and P.funiculosum; 30° C., 2 weeks; in µg/mL (unit assumed). The method, then:
In a minimum inhibitory concentration (MIC) test, the amount of the test compound needed to prevent fungal growth is established. In this test, agar containing the test compound at a specified concentration is inoculated with 1 ml of a broth containing 10,000 units each of A.niger and P.funiculosum. The agar plates inoculated in this fashion are incubated at 30° C. for 2 weeks and growth of the micro-organisms is determined by visual inspection to establish presence or absence of fungal growth. The compounds made according to Example 1 and their MIC data are shown in the following table, wherein X, Y, Y' and Z are as indicated in Structure I.
`O=C1C(Cl)=C(Cl)C(=O)N1c1ccc(Oc2ccc(Cl)cc2Cl)cc1` [X=Cl, Y=H, Y'=2,4-Cl2, Z=O]: the MIC is reported as 1000-1500. Under `O=C1C=CC(=O)N1c1ccc(Sc2ccc([N+](=O)[O-])cc2)cc1` [X=H, Y=H, Y'=4-NO2, Z=S] stands 50-100. Then `COC(=O)c1cc(Oc2ccc(Cl)cc2Cl)ccc1N1C(=O)C=CC1=O` [X=H, Y=2-CO2 Me, Y'=2,4-Cl2, Z=O], with 10- 50. Then `O=C1C(Cl)=C(Cl)C(=O)N1c1ccc(Sc2ccccc2)cc1` [X=Cl, Y=H, Y'=H, Z=S, N-(p-phenylthiophenyl)-2,3-dichloromaleimide], with 500-1000; and `O=C1C=CC(=O)N1c1ccc(Oc2ccc(Cl)cc2Cl)cc1` [X=H, Y=H, Y'=2,4-Cl2, Z=O], with 50-100; and `COC(=O)c1cc(Oc2ccc(Cl)cc2Cl)ccc1N1C(=O)C(Cl)=C(Cl)C1=O` [X=Cl, Y=2-CO2 Me, Y'=2,4-Cl2, Z=O], with 1000-1500. For `O=C1C=CC(=O)N1c1ccc(Sc2ccccc2)cc1` [X=H, Y=H, Y'=H, Z=S], the MIC is 100-200. Under `O=C1C(Cl)=C(Cl)C(=O)N1c1ccc(Oc2ccc(Cl)c(Cl)c2)c(Cl)c1` [X=Cl, Y=3-Cl, Y'=3,4-Cl2, Z=O] stands above 2000. Then `O=C1C(Cl)=C(Cl)C(=O)N1c1ccc(Sc2ccc([N+](=O)[O-])cc2)cc1` [X=Cl, Y=H, Y'=4-NO2, Z=S], with 50-100.
